Literature values as cited in patent publication US9695323B2, “UV curable solventless antimicrobial compositions” (Becton, Dickinson and Company, priority 2013, dated 2017).

Tested on: Staphylococcus epidermidis

## CC(=O)O.CC(=O)O.NC(=N\CCCCCC/N=C(N)/N=C(\N)Nc1ccc(Cl)cc1)/N=C(\N)Nc1ccc(Cl)cc1 [chlorhexidine diacetate]
  minimum inhibitory concentration: 2 µg/mL
